18 compounds from patent publication US10543212B2, “Substituted amines for treating cardiac diseases” (Cardurion Pharmaceuticals, LLC, priority 2017, dated 2020) can be followed below.

SMILES strings stand for the structures. Some results are limits rather than exact numbers.

This test concerns the target T1, Full-length, GST-tagged, human CaMKIIδ (Homo sapiens, UniProt Q13557).
T1 construct: Full-Length, Glutathione-S-Transferase(GST)-Tagged, Human CaMKIIδ was purchased from Carna Biosciences; purchased Carna Biosciences 02-111
Kind of test: CaMKIIδ binding assay (TR-FRET with BODIPY-labeled probe ligand). The procedure, abridged:
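Compounds were tested as 4-fold, eight-point series for 1 hr at room temperature, and IC50 was obtained by logistic fitting against a 3 μM parent-compound control. Signal came from displacement of a 300 nM BODIPY ligand from 0.5 nM GST-CaMKIIδ, detected via Tb-anti-GST in calmodulin/Ca2+ (pH 7.6).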
(TR-FRET usually uses a lanthanide donor and a delayed reading to cut background.)

Setting [1] is: CaMKIIδ binding assay, results of Table 2.
Setting [2] is: Table 2, CaMKIIδ binding assay, activity given as class A/B/C.
Where [3] appears, read: CaMKIIδ binding assay, activity class per Table 2.
The mark [4] stands for this setting: Table 2, activity class for CaMKIIδ.

T1 sequence (Q13557 1-478 isoform Q13557-12): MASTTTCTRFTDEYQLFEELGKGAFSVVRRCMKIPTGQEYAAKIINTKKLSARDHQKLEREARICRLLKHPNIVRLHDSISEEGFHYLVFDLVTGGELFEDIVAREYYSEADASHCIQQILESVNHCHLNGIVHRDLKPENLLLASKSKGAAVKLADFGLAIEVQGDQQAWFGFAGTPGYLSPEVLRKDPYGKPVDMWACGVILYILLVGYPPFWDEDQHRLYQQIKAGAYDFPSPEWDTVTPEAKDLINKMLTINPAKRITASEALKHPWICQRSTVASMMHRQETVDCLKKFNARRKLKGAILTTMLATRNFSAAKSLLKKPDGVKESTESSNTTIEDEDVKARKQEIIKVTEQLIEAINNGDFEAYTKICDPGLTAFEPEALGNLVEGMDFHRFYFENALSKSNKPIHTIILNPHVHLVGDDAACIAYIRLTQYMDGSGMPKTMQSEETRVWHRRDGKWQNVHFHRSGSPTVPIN

Turning to `C[C@@H](Cn1cnnn1)Oc1cc(-c2cnc(Nc3cc4c(cc3Cl)CCN(C3CCOCC3)CC4)nc2)ccc1C#N` [Example 538, (S)-2-((1-(1H-tetrazol-1-yl)propan-2-yl)oxy)-4-(2-((8-chloro-3-(tetrahydro-2H-pyran-4-yl)-2,3,4,5-tetrahydro-1H-benzo[d]azepin-7-yl)amino)pyrimidin-5-yl)benzonitrile], under setting [1], the IC50 (in general, the concentration that gives 50% inhibition) was < 10 nM.
For the compound `C[C@@H](Cn1cnnn1)Oc1cc(-c2cnc(Nc3cn(C4CCNCC4)nc3C(F)F)nc2)ccc1Cl` [Example 771, (S)-5-(3-((1-(1H-tetrazol-1-yl)propan-2-yl)oxy)-4-chlorophenyl)-N-(3-(difluoromethyl)-1-(piperidin-4-yl)-1H-pyrazol-4-yl)pyrimidin-2-amine], the IC50 under setting [2] is < 10 nM.
Consider `C[C@@H](Cn1cnnn1)Oc1cc(-c2cnc(Nc3ccc4c(c3)N(C(=O)C3CCN(C)CC3)CC4)nc2)ccc1Cl` [Example 435, (S)-(6-((5-(3-((1-(1H-tetrazol-1-yl)propan-2-yl)oxy)-4-chlorophenyl)pyrimidin-2-yl)amino)indolin-1-yl) (1-methylpiperidin-4-yl)methanone], for which, under setting [1], the concentration for half-maximal inhibition (IC50) is < 10 nM.
On the same count and under the same terms, next, `COc1ccc(C(=O)N2CCN(C)CC2)cc1Nc1ncc(-c2ccc(Cl)c(O[C@@H](C)Cn3cnnn3)c2)cn1` [Example 569, (S)-(3-((5-(3-((1-(1H-tetrazol-1-yl)propan-2-yl)oxy)-4-chlorophenyl)pyrimidin-2-yl)amino)-4-methoxyphenyl) (4-methylpiperazin-1-yl)methanone]: < 10 nM.
Turning to `C[C@@H](Cn1cnnn1)Oc1cc(-c2cnc(Nc3cc(N4CCN(C5CCOCC5)CC4)ccc3OC(F)(F)F)nc2)ccc1Cl` [Example 768, (S)-5-(3-((1-(1H-tetrazol-1-yl)propan-2-yl)oxy)-4-chlorophenyl)-N-(5-(4-(tetrahydro-2H-pyran-4-yl)piperazin-1-yl)-2-(trifluoromethoxy)phenyl)pyrimidin-2-amine], the IC50 under setting [2] is < 10 nM.
Take `C[C@@H](Cn1cnnn1)Oc1cc(-c2cnc(Nc3cn(CC4(O)CCN(C)CC4)nc3OCC(F)(F)F)nc2)ccc1Cl` [Example 910, (S)-4-((4-((5-(3-((1-(1H-tetrazol-1-yl)propan-2-yl)oxy)-4-chlorophenyl)pyrimidin-2-yl)amino)-3-(2,2,2-trifluoroethoxy)-1H-pyrazol-1-yl)methyl)-1-methylpiperidin-4-ol]: under setting [3], the IC50 is < 10 nM.
With `C[C@@H](Cn1cnnn1)Oc1cc(-c2cnc(Nc3nc4ccccc4n3C)nc2)ccc1Cl` [Example 745, (S)-N-(5-(3-((1-(1H-tetrazol-1-yl)propan-2-yl)oxy)-4-chlorophenyl)pyrimidin-2-yl)-1-methyl-1H-benzo[d]imidazol-2-amine], the IC50 under setting [2] was ≥ 100 nM.
Consider `C[C@@H](Cn1cnnn1)Oc1cc(-c2cnc(Nc3cn(C4CC5(C4)CN(C4CCC4)C5)nc3OC3COC3)nc2)ccc1Cl` [Example 945, (S)-5-(3-((1-(1H-tetrazol-1-yl)propan-2-yl)oxy)-4-chlorophenyl)-N-(1-(2-cyclobutyl-2-azaspiro[3.3]heptan-6-yl)-3-(oxetan-3-yloxy)-1H-pyrazol-4-yl)pyrimidin-2-amine], for which the IC50 under setting [3] is < 10 nM.
The same measure, in the same setting: next, `CC(C)c1nn(C2CC3(C2)CN(C2COCOC2)C3)cc1Nc1ncc(-c2ccc(Cl)c(O[C@@H](C)Cn3cnnn3)c2)cn1` [Example 1013, (S)-N-(1-(2-(1,3-dioxan-5-yl)-2-azaspiro[3.3]heptan-6-yl)-3-isopropyl-1H-pyrazol-4-yl)-5-(3-((1-(1H-tetrazol-1-yl)propan-2-yl)oxy)-4-chlorophenyl)pyrimidin-2-amine]: < 10 nM.
With `COc1cc2c(cc1Nc1ncc(-c3ccc(Cl)c(O[C@@H](C)Cn4cnnn4)c3)cn1)CN(C1CCOCC1)CC2` [Example 502, (S)-N-(5-(3-((1-(1H-tetrazol-1-yl)propan-2-yl)oxy)-4-chlorophenyl)pyrimidin-2-yl)-6-methoxy-2-(tetrahydro-2H-pyran-4-yl)-1,2,3,4-tetrahydroisoquinolin-7-amine], the IC50 under setting [1] is < 10 nM.
With `CCn1ncc(Nc2ncc(-c3ccc(Cl)c(O[C@@H](C)Cn4cnnn4)c3)cn2)c1C(=O)N1CCC(N2CCOCC2)CC1` [Example 880, (S)-(4-((5-(3-((1-(1H-tetrazol-1-yl)propan-2-yl)oxy)-4-chlorophenyl)pyrimidin-2-yl)amino)-1-ethyl-1H-pyrazol-5-yl) (4-morpholinopiperidin-1-yl)methanone], under setting [3], the IC50 is ≥ 100 nM.
Turning to `COc1nc(N2CCCN(C3CCOCC3)CC2)ccc1Nc1ncc(-c2ccc(Cl)c(O[C@@H](C)Cn3cnnn3)c2)cn1` [Example 667, (S)-5-(3-((1-(1H-tetrazol-1-yl)propan-2-yl)oxy)-4-chlorophenyl)-N-(2-methoxy-6-(4-(tetrahydro-2H-pyran-4-yl)-1,4-diazepan-1-yl)pyridin-3-yl)pyrimidin-2-amine], the IC50 under setting [4] is < 10 nM.
For the compound `COc1cc2c(cc1Nc1ncc(-c3ccc(Cl)c(O[C@@H](C)Cn4cnnn4)c3)cn1)N(CC1COC1)CC2` [Example 503, (S)-N-(5-(3-((1-(1H-tetrazol-1-yl)propan-2-yl)oxy)-4-chlorophenyl)pyrimidin-2-yl)-5-methoxy-1-(oxetan-3-ylmethyl)indolin-6-amine], under setting [1], the IC50 fell in the range of 10 to 100 nM.
For the compound `C[C@@H](Cn1cnnn1)Oc1cc(-c2cnc(Nc3cn(-c4cn[nH]c4)nc3C(F)(F)F)nc2)ccc1Cl` [Example 890, (S)-N-(5-(3-((1-(1H-tetrazol-1-yl)propan-2-yl)oxy)-4-chlorophenyl)pyrimidin-2-yl)-3-(trifluoromethyl)-1′H-[1,4′-bipyrazol]-4-amine], under setting [3], the IC50 lay within 10 to 100 nM.
The same measure, in the same setting: next, `C[C@@H](Cn1cnnn1)Oc1cc(-c2cnc(Nc3cn(C4(C(=O)O)CCC4)nc3OCC(F)(F)F)nc2)ccc1Cl` [Example 916, (S)-1-(4-((5-(3-((1-(1H-tetrazol-1-yl)propan-2-yl)oxy)-4-chlorophenyl)pyrimidin-2-yl)amino)-3-(2,2,2-trifluoroethoxy)-1H-pyrazol-1-yl)cyclobutane-1-carboxylic acid]: 10 to 100 nM.
With `COc1cc(N2CCN(C3CCOCC3)CC2)ncc1Nc1ncc(-c2ccc(Cl)c(O[C@@H](C)Cn3cnnn3)c2)cn1` [Example 650, (S)-5-(3-((1-(1H-tetrazol-1-yl)propan-2-yl)oxy)-4-chlorophenyl)-N-(4-methoxy-6-(4-(tetrahydro-2H-pyran-4-yl)piperazin-1-yl)pyridin-3-yl)pyrimidin-2-amine], under setting [4], the 50% inhibitory concentration (IC50) was < 10 nM.
For the compound `C[C@@H](Cn1cnnn1)Oc1cc(-c2cnc(Nc3cn(CC4(CO)COC4)nc3C(F)(F)F)nc2)ccc1Cl` [Example 732, (S)-(3-((4-((5-(3-((1-(1H-tetrazol-1-yl)propan-2-yl)oxy)-4-chlorophenyl)pyrimidin-2-yl)amino)-3-(trifluoromethyl)-1H-pyrazol-1-yl)methyl)oxetan-3-yl)methanol], the 50% inhibitory concentration (IC50) under setting [2] was 10 to 100 nM.
On to `COc1cc2c(cc1Nc1ncc(-c3ccc(Cl)c(O[C@@H](C)Cn4cnnn4)c3)cn1)CCN(C1COC1)CC2` [Example 447, (S)-N-(5-(3-((1-(1H-tetrazol-1-yl)propan-2-yl)oxy)-4-chlorophenyl)pyrimidin-2-yl)-8-methoxy-3-(oxetan-3-yl)-2,3,4,5-tetrahydro-1H-benzo[d]azepin-7-amine], for which the IC50 under setting [1] was < 10 nM.
